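Cultured in 96-well plates, cells were exposed to test compound for 48 hours across five concentrations. TGI: total growth inhibition.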
Experiments:
Assay in all cases: NCI anticancer screen, dose series, 48 h
[1] = test system: CCRF-CEM leukemia
[2] = test system: MALME-3M melanoma
[3] = test system: ACHN renal
[4] = test system: KM20L2 colon
[5] = test system: 786-0 renal
[6] = test system: RXF-631 renal
[7] = test system: SK-MEL-2 melanoma
[8] = test system: IGROV1 ovarian
[9] = test system: HL-60(TB) leukemia
[10] = test system: KM12 colon
[11] = test system: COLO 205 colon
[12] = test system: LOX IMVI melanoma
[13] = test system: RXF 393 renal
[14] = test system: HCT-116 colon
[15] = test system: DMS 114 small cell lung
[16] = test system: UACC-62 melanoma
[17] = test system: DLD-1 colon
[18] = test system: RPMI-8226 leukemia
[19] = test system: DMS 273 small cell lung
[20] = test system: M19-MEL melanoma
[21] = test system: LXFL 529 NSCLC
[22] = test system: HCC-2998 colon
[23] = test system: HOP-92 NSCLC
[24] = test system: SF-295 CNS
[25] = test system: M14 melanoma
[26] = test system: SF-268 CNS
[27] = test system: OVCAR-5 ovarian
[28] = test system: SNB-75 CNS
[29] = test system: OVCAR-8 ovarian
[30] = test system: SNB-19 CNS
[31] = test system: HCT-15 colon
[32] = test system: NCI-H23 lung
[33] = test system: UO-31 renal
[34] = test system: TK-10 renal
[35] = test system: MOLT-4 leukemia
[36] = test system: HOP-62 NSCLC
[37] = test system: A549 NSCLC
[38] = test system: U251 CNS
[39] = test system: OVCAR-4 ovarian
[40] = test system: SN12C renal
[41] = test system: SW-620 colon
[42] = test system: HOP-18 NSCLC
[43] = test system: SK-OV-3 ovarian
[44] = test system: SF-539 CNS
[45] = test system: SNB-78 CNS
[46] = test system: K-562 leukemia
[47] = test system: OVCAR-3 ovarian
[48] = test system: EKVX NSCLC
[49] = test system: NCI-H460 lung
[50] = test system: SK-MEL-5 melanoma
[51] = test system: CAKI-1 renal
[52] = test system: HT29 colon
[53] = test system: A498 renal
[54] = test system: SK-MEL-28 melanoma
[55] = test system: UACC-257 melanoma
[56] = test system: NCI-H522 lung
[57] = test system: XF 498 CNS
[58] = test system: NCI-H226 lung
[59] = test system: SR leukemia

CC(=O)/C=C\C1CC2C=CC1C2 (centres undefined)
TGI [1]: 70.3 µM | TGI [2]: > 100 µM | TGI [3]: > 100 µM | TGI [4]: > 100 µM | TGI [5]: > 100 µM | TGI [6]: > 100 µM | TGI [7]: > 100 µM | TGI [8]: > 100 µM | TGI [9]: 99.7 µM | TGI [10]: > 100 µM | TGI [11]: > 100 µM | TGI [12]: 65.4 µM | TGI [13]: > 100 µM | TGI [14]: 54.5 µM | TGI [15]: 82.8 µM | TGI [16]: > 100 µM | TGI [17]: > 100 µM | TGI [18]: > 100 µM | TGI [19]: > 100 µM | TGI [20]: > 100 µM | TGI [21]: > 100 µM | TGI [22]: 73.2 µM | TGI [23]: 79.9 µM | TGI [24]: > 100 µM | TGI [25]: > 100 µM | TGI [26]: 76.1 µM | TGI [27]: > 100 µM | TGI [28]: 72.2 µM | TGI [29]: > 100 µM | TGI [30]: > 100 µM | TGI [31]: > 100 µM | TGI [32]: > 100 µM | TGI [33]: > 100 µM | TGI [34]: > 100 µM | TGI [35]: 66.1 µM | TGI [36]: > 100 µM | TGI [37]: > 100 µM | TGI [38]: > 100 µM | TGI [39]: > 100 µM | TGI [40]: > 100 µM | TGI [41]: > 100 µM | TGI [42]: > 100 µM | TGI [43]: > 100 µM | TGI [44]: > 100 µM | TGI [45]: 73.5 µM | TGI [46]: > 100 µM | TGI [47]: > 100 µM | TGI [48]: > 100 µM | TGI [49]: > 100 µM | TGI [50]: > 100 µM

COC(=O)CCC1(NS(=O)(=O)c2ccc(C)cc2)CCC(C(C)(C)C)CC1 (centres undefined)
TGI [1]: 37 µM | TGI [2]: 35.4 µM | TGI [5]: 29 µM | TGI [6]: 45.2 µM | TGI [7]: 33.5 µM | TGI [8]: 41.7 µM | TGI [9]: 11.8 µM | TGI [10]: 44.7 µM | TGI [11]: 26.8 µM | TGI [12]: 38 µM | TGI [14]: 22.2 µM | TGI [15]: 20.3 µM | TGI [16]: 26.4 µM | TGI [17]: 65.9 µM | TGI [18]: 21.4 µM | TGI [19]: 31.2 µM | TGI [20]: 25.2 µM | TGI [21]: 68.3 µM | TGI [51]: 27.3 µM | TGI [22]: 30.3 µM | TGI [52]: 31.8 µM | TGI [23]: 27.1 µM | TGI [24]: 26.5 µM | TGI [25]: 33.7 µM | TGI [53]: 28.8 µM | TGI [54]: 25.3 µM | TGI [27]: 32.8 µM | TGI [55]: 24.7 µM | TGI [28]: 41.2 µM | TGI [29]: 40.7 µM | TGI [30]: 35.6 µM | TGI [32]: 29.2 µM | TGI [33]: 16 µM | TGI [34]: 65.4 µM | TGI [35]: 25.2 µM | TGI [36]: 36.1 µM | TGI [56]: 21.3 µM | TGI [37]: 73.4 µM | TGI [38]: 29 µM | TGI [39]: 32.1 µM | TGI [40]: 28.5 µM | TGI [41]: 37.3 µM | TGI [43]: > 100 µM | TGI [44]: 26.2 µM | TGI [45]: 67.2 µM | TGI [46]: 33.7 µM | TGI [47]: 23.2 µM | TGI [49]: 92 µM | TGI [57]: 30.7 µM | TGI [50]: 19.3 µM

Cc1cc(C)nc(NS(=O)(=O)c2ccc(NC(=O)c3ccc(Cl)c4c(Nc5ccc(S(=O)(=O)Nc6cc(C)on6)cc5)c5ccccc5nc34)cc2)n1
TGI [2]: 40 µM | TGI [58]: 32.9 µM | TGI [3]: 36.1 µM | TGI [4]: 32.6 µM | TGI [5]: 30.9 µM | TGI [6]: 33.7 µM | TGI [8]: 37.3 µM | TGI [9]: 27.2 µM | TGI [10]: 33.7 µM | TGI [11]: 32.3 µM | TGI [12]: 30 µM | TGI [13]: 28 µM | TGI [14]: 39.9 µM | TGI [15]: 32.6 µM | TGI [16]: 32.3 µM | TGI [17]: 31.6 µM | TGI [18]: 50.3 µM | TGI [19]: 31.9 µM | TGI [20]: 39.7 µM | TGI [21]: 30.7 µM | TGI [51]: 29.5 µM | TGI [22]: 33 µM | TGI [52]: 35.8 µM | TGI [23]: 30.3 µM | TGI [24]: 32.7 µM | TGI [25]: 36.3 µM | TGI [53]: 29.1 µM | TGI [54]: 32.9 µM | TGI [26]: 28.9 µM | TGI [27]: 35.7 µM | TGI [55]: 32.2 µM | TGI [29]: 30.9 µM | TGI [30]: 30.8 µM | TGI [32]: 29.7 µM | TGI [33]: 31.7 µM | TGI [34]: 32.3 µM | TGI [35]: 70.9 µM | TGI [36]: 30.6 µM | TGI [56]: 31.8 µM | TGI [37]: 40.7 µM | TGI [38]: 28.9 µM | TGI [39]: 30.7 µM | TGI [40]: 36.5 µM | TGI [41]: 33.1 µM | TGI [42]: 29.2 µM | TGI [43]: 35.9 µM | TGI [44]: 34.6 µM | TGI [45]: 37.2 µM | TGI [46]: 68.5 µM | TGI [47]: 30.4 µM | TGI [48]: 33.9 µM | TGI [49]: 36.3 µM | TGI [50]: 30 µM

CN(C)CCCCC1CCN(CC(=O)N2c3ccccc3NC(=O)c3ccccc32)CC1
TGI [1]: > 100 µM | TGI [2]: > 100 µM | TGI [58]: > 100 µM | TGI [5]: > 100 µM | TGI [6]: > 100 µM | TGI [7]: > 100 µM | TGI [9]: > 100 µM | TGI [10]: > 100 µM | TGI [11]: > 100 µM | TGI [14]: > 100 µM | TGI [15]: > 100 µM | TGI [59]: > 100 µM | TGI [16]: > 100 µM | TGI [17]: > 100 µM | TGI [18]: > 100 µM | TGI [19]: > 100 µM | TGI [20]: > 100 µM | TGI [21]: > 100 µM | TGI [51]: > 100 µM | TGI [22]: > 100 µM | TGI [52]: > 100 µM | TGI [23]: > 100 µM | TGI [24]: > 100 µM | TGI [25]: 72.9 µM | TGI [53]: > 100 µM | TGI [54]: > 100 µM | TGI [26]: > 100 µM | TGI [55]: > 100 µM | TGI [28]: > 100 µM | TGI [29]: > 100 µM | TGI [30]: > 100 µM | TGI [32]: > 100 µM | TGI [33]: > 100 µM | TGI [34]: > 100 µM | TGI [35]: > 100 µM | TGI [36]: > 100 µM | TGI [56]: > 100 µM | TGI [37]: > 100 µM | TGI [39]: > 100 µM | TGI [40]: > 100 µM | TGI [41]: > 100 µM | TGI [43]: > 100 µM | TGI [44]: > 100 µM | TGI [45]: > 100 µM | TGI [46]: > 100 µM | TGI [47]: > 100 µM | TGI [48]: > 100 µM | TGI [57]: > 100 µM | TGI [50]: > 100 µM

O=C1CCC(c2nc3cc(Cl)ccc3o2)C(=O)N1 (centres undefined)
TGI [1]: > 100 µM | TGI [2]: > 100 µM | TGI [58]: > 100 µM | TGI [3]: > 100 µM | TGI [4]: > 100 µM | TGI [5]: > 100 µM | TGI [6]: > 100 µM | TGI [7]: > 100 µM | TGI [8]: > 100 µM | TGI [9]: > 100 µM | TGI [10]: > 100 µM | TGI [11]: > 100 µM | TGI [12]: > 100 µM | TGI [13]: > 100 µM | TGI [14]: > 100 µM | TGI [15]: > 100 µM | TGI [59]: > 100 µM | TGI [16]: > 100 µM | TGI [17]: > 100 µM | TGI [19]: > 100 µM | TGI [20]: > 100 µM | TGI [21]: > 100 µM | TGI [51]: > 100 µM | TGI [22]: > 100 µM | TGI [52]: > 100 µM | TGI [23]: > 100 µM | TGI [24]: > 100 µM | TGI [25]: > 100 µM | TGI [53]: > 100 µM | TGI [54]: > 100 µM | TGI [26]: > 100 µM | TGI [27]: > 100 µM | TGI [55]: > 100 µM | TGI [28]: > 100 µM | TGI [29]: > 100 µM | TGI [30]: > 100 µM | TGI [31]: > 100 µM | TGI [32]: > 100 µM | TGI [33]: > 100 µM | TGI [34]: > 100 µM | TGI [35]: > 100 µM | TGI [36]: > 100 µM | TGI [56]: > 100 µM | TGI [37]: > 100 µM | TGI [38]: > 100 µM | TGI [39]: > 100 µM | TGI [40]: > 100 µM | TGI [41]: > 100 µM | TGI [42]: > 100 µM | TGI [43]: > 100 µM | TGI [44]: > 100 µM | TGI [45]: > 100 µM | TGI [46]: > 100 µM | TGI [47]: > 100 µM | TGI [48]: > 100 µM | TGI [49]: > 100 µM | TGI [50]: > 100 µM

— PubChem BioAssay (NCI)
